Tests used:
Test in all cases: relative viability (nuclei count vs DMSO), 5 days (fraction); higher = more cells survive
Avagacestat + Pictilisib = compound: NC(=O)[C@@H](CCC(F)(F)F)N(Cc1ccc(-c2ncon2)cc1F)S(=O)(=O)c1ccc(Cl)cc1 [Avagacestat] + CS(=O)(=O)N1CCN(Cc2cc3nc(-c4cccc5[nH]ncc45)nc(N4CCOCC4)c3s2)CC1 [Pictilisib] (partner 1 µM)
Summary of the method: (§1)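 A single step with final 0.05% Triton X-100, 1% formaldehyde and 1 ug/ml Hoechst fixed the cells and stained nuclei 5 days after treatment. Lung cancer cell lines in 1536-well plates had been treated by pin tool the day after seeding with one drug alone or a fixed anchor-drug dose plus five library-drug doses (not always all listed) in √10 steps, and nuclei were counted on 4× images. Relative viability is the ratio of nuclei in treated wells to nuclei in vehicle wells, taken as the median of duplicate plates.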

Avagacestat + Crizotinib = compound: NC(=O)[C@@H](CCC(F)(F)F)N(Cc1ccc(-c2ncon2)cc1F)S(=O)(=O)c1ccc(Cl)cc1 [Avagacestat] + C[C@@H](Oc1cc(-c2cnn(C3CCNCC3)c2)cnc1N)c1c(Cl)ccc(F)c1Cl [Crizotinib] (partner 1 µM)
Summary of the method: as §1

Avagacestat + Alpelisib = compound: NC(=O)[C@@H](CCC(F)(F)F)N(Cc1ccc(-c2ncon2)cc1F)S(=O)(=O)c1ccc(Cl)cc1 [Avagacestat] + Cc1nc(NC(=O)N2CCC[C@H]2C(N)=O)sc1-c1ccnc(C(C)(C)C(F)(F)F)c1 [Alpelisib] (partner 2 µM)
Summary of the method: as §1

Avagacestat + Lapatinib = compound: NC(=O)[C@@H](CCC(F)(F)F)N(Cc1ccc(-c2ncon2)cc1F)S(=O)(=O)c1ccc(Cl)cc1 [Avagacestat] + CS(=O)(=O)CCNCc1ccc(-c2ccc3ncnc(Nc4ccc(OCc5cccc(F)c5)c(Cl)c4)c3c2)o1 [Lapatinib] (partner 2 µM)
Summary of the method: as §1

Avagacestat + Bortezomib = compound: NC(=O)[C@@H](CCC(F)(F)F)N(Cc1ccc(-c2ncon2)cc1F)S(=O)(=O)c1ccc(Cl)cc1 [Avagacestat] + CC(C)C[C@H](NC(=O)[C@H](Cc1ccccc1)NC(=O)c1cnccn1)B(O)O [Bortezomib] (partner 0.002 µM)
Summary of the method: as §1

Avagacestat + Olaparib = compound: NC(=O)[C@@H](CCC(F)(F)F)N(Cc1ccc(-c2ncon2)cc1F)S(=O)(=O)c1ccc(Cl)cc1 [Avagacestat] + O=C(c1cc(Cc2n[nH]c(=O)c3ccccc23)ccc1F)N1CCN(C(=O)C2CC2)CC1 [Olaparib] (partner 8 µM)
Summary of the method: as §1

Avagacestat + Navitoclax = compound: NC(=O)[C@@H](CCC(F)(F)F)N(Cc1ccc(-c2ncon2)cc1F)S(=O)(=O)c1ccc(Cl)cc1 [Avagacestat] + CC1(C)CCC(c2ccc(Cl)cc2)=C(CN2CCN(c3ccc(C(=O)NS(=O)(=O)c4ccc(N[C@H](CCN5CCOCC5)CSc5ccccc5)c(S(=O)(=O)C(F)(F)F)c4)cc3)CC2)C1 [Navitoclax] (partner 0.5 µM)
Summary of the method: as §1

Avagacestat + Foretinib = compound: NC(=O)[C@@H](CCC(F)(F)F)N(Cc1ccc(-c2ncon2)cc1F)S(=O)(=O)c1ccc(Cl)cc1 [Avagacestat] + COc1cc2c(Oc3ccc(NC(=O)C4(C(=O)Nc5ccc(F)cc5)CC4)cc3F)ccnc2cc1OCCCN1CCOCC1 [Foretinib] (partner 0.25 µM)
Summary of the method: as §1

Avagacestat + Linsitinib = compound: NC(=O)[C@@H](CCC(F)(F)F)N(Cc1ccc(-c2ncon2)cc1F)S(=O)(=O)c1ccc(Cl)cc1 [Avagacestat] + C[C@]1(O)C[C@@H](c2nc(-c3ccc4ccc(-c5ccccc5)nc4c3)c3c(N)nccn32)C1 [Linsitinib] (partner 1 µM)
Summary of the method: as §1

Avagacestat = compound: NC(=O)[C@@H](CCC(F)(F)F)N(Cc1ccc(-c2ncon2)cc1F)S(=O)(=O)c1ccc(Cl)cc1 [Avagacestat]
Summary of the method: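 Viability is treated-well nuclei as a fraction of vehicle-well nuclei, reported as the median across plates. Before counting, lung cancer cell lines were kept overnight at 37 °C in 1536-well plates, pinned with five √10-spaced library-drug doses on vehicle-anchored plates, and left 5 days without medium change, then fixed, permeabilised and Hoechst-stained in one step, imaged at 4× and counted by MetaXpress. A plate passed only if control CV was below 25% and at least one doubling occurred.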

EBC-1
relative viability (Avagacestat + Pictilisib; first compound 0.08 µM): 0.429
relative viability (Avagacestat + Pictilisib; first compound 0.253 µM): 0.331
relative viability (Avagacestat + Pictilisib; first compound 0.8 µM): 0.413
relative viability (Avagacestat + Pictilisib; first compound 2.53 µM): 0.362
relative viability (Avagacestat + Pictilisib; first compound 8 µM): 0.327
relative viability (Avagacestat + Crizotinib; first compound 0.08 µM): 0.213
relative viability (Avagacestat + Crizotinib; first compound 0.253 µM): 0.196
relative viability (Avagacestat + Crizotinib; first compound 0.8 µM): 0.2
relative viability (Avagacestat + Crizotinib; first compound 2.53 µM): 0.21
relative viability (Avagacestat + Crizotinib; first compound 8 µM): 0.203
relative viability (Avagacestat + Alpelisib; first compound 0.08 µM): 0.691
relative viability (Avagacestat + Alpelisib; first compound 0.253 µM): 0.78
relative viability (Avagacestat + Alpelisib; first compound 0.8 µM): 0.743
relative viability (Avagacestat + Alpelisib; first compound 2.53 µM): 0.738
relative viability (Avagacestat + Alpelisib; first compound 8 µM): 0.555
relative viability (Avagacestat + Lapatinib; first compound 0.08 µM): 0.212
relative viability (Avagacestat + Lapatinib; first compound 0.253 µM): 0.231
relative viability (Avagacestat + Lapatinib; first compound 0.8 µM): 0.246
relative viability (Avagacestat + Lapatinib; first compound 2.53 µM): 0.23
relative viability (Avagacestat + Lapatinib; first compound 8 µM): 0.202
relative viability (Avagacestat + Bortezomib; first compound 0.08 µM): 0.496
relative viability (Avagacestat + Bortezomib; first compound 0.253 µM): 0.521
relative viability (Avagacestat + Bortezomib; first compound 0.8 µM): 0.524
relative viability (Avagacestat + Bortezomib; first compound 2.53 µM): 0.449
relative viability (Avagacestat + Bortezomib; first compound 8 µM): 0.381
relative viability (Avagacestat + Olaparib; first compound 0.08 µM): 0.76
relative viability (Avagacestat + Olaparib; first compound 0.253 µM): 0.868
relative viability (Avagacestat + Olaparib; first compound 0.8 µM): 0.704
relative viability (Avagacestat + Olaparib; first compound 2.53 µM): 0.799
relative viability (Avagacestat + Olaparib; first compound 8 µM): 0.537
relative viability (Avagacestat + Navitoclax; first compound 0.08 µM): 0.342
relative viability (Avagacestat + Navitoclax; first compound 0.253 µM): 0.392
relative viability (Avagacestat + Navitoclax; first compound 0.8 µM): 0.334
relative viability (Avagacestat + Navitoclax; first compound 2.53 µM): 0.372
relative viability (Avagacestat + Navitoclax; first compound 8 µM): 0.296
relative viability (Avagacestat + Foretinib; first compound 0.08 µM): 0.114
relative viability (Avagacestat + Foretinib; first compound 0.253 µM): 0.113
relative viability (Avagacestat + Foretinib; first compound 0.8 µM): 0.123
relative viability (Avagacestat + Foretinib; first compound 2.53 µM): 0.11
relative viability (Avagacestat + Foretinib; first compound 8 µM): 0.107
relative viability (Avagacestat + Linsitinib; first compound 0.08 µM): 0.88
relative viability (Avagacestat + Linsitinib; first compound 0.253 µM): 0.914
relative viability (Avagacestat + Linsitinib; first compound 0.8 µM): 1.09
relative viability (Avagacestat + Linsitinib; first compound 2.53 µM): 0.995
relative viability (Avagacestat + Linsitinib; first compound 8 µM): 0.649
relative viability (Avagacestat; 0.08 µM): 1.07
relative viability (Avagacestat; 0.253 µM): 1.11
relative viability (Avagacestat; 0.8 µM): 1.12
relative viability (Avagacestat; 2.53 µM): 0.942
relative viability (Avagacestat; 8 µM): 0.8
